# Values of other authors in patent US20090202442A1, “Enerceutical activation of the alternative cellular energy (ACE) pathway in therapy of diseases” (priority 2008, published 2009).
# Tested on: herpes simplex virus (HSV), herpes zoster virus (HZV) and human papillomavirus (HPV) infections
structure (smiles),measurement,setting,value
Cc1cc2nc3ccc(N(C)C)cc3nc2cc1N.Cl [neutral red],healing of active skin lesions,"neutral red dye triggered UV fluorescence, HSV, HZV, HPV lesions",successfully used in expediting the healing
same,future outbreaks of recurrent herpes,"patients with prior history of recurrent herpes, treated when no active lesion present",successfully used in preventing future outbreaks
